IC50 data for 27 compounds are collected here from patent US8592456B2 (4SC Discovery GmbH, priority 2011, dated 2013).

Molecules are shown by their SMILES. pIC50: −log10 of the molar value. A value given as a limit tells only on which side of the number the result lay.

One experiment deals with PBMC (T cell proliferation). Kind of experiment: T cell proliferation assay, PHA-stimulated human PBMC (BrdU ELISA). The experiment is classed as cell-based. The settings on record: Homo sapiens, 48 h, read-out: IC50 (Tcell proliferation). Summed up: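 BrdU ELISA readout of proliferation at 48 hours. Cells: human PBMC from healthy donors in 10% dialyzed FCS/RPMI1640, 1×10^5 per well, activated by 2 μg/ml phytohaemagglutinin in the presence of compound.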
(In general: Incorporation of labelled thymidine or its analogues reports DNA synthesis.)
For `CC(=O)Nc1cccc(-n2ncc(-c3onc(-c4c(F)cccc4Cl)c3-c3nnc(C)s3)c2C(F)(F)F)c1` [IB-12, N-(3-(4-(3-(2-chloro-6-fluorophenyl)-4-(5-methyl-1,3,4-thiadiazol-2-yl)isoxazol-5-yl)-5-(trifluoromethyl)-1H-pyrazol-1-yl)phenyl)acetamide], the pIC50 is 5.00 to 6.00.

With `Fc1cccc(Cl)c1-c1noc(-c2cnn(-c3ccccc3Cl)c2C(F)(F)F)c1-c1nccs1` [IB-29, 3-(2-chloro-6-fluorophenyl)-5-(1-(2-chlorophenyl)-5-(trifluoromethyl)-1H-pyrazol-4-yl)-4-(thiazol-2-yl)isoxazole], the pIC50 was 5.00 to 6.00.

The same experiment, now with this note: PHA-stimulated human PBMC, 48 hours, BrdU; column D; activity classes 1-4; read-out: IC50 (Tcell proliferation).
`Fc1cccc(Cl)c1-c1noc(-c2cnn(-c3cccc(Cl)c3)c2C(F)(F)F)c1-c1nnco1` [IB-5, 2-(3-(2-chloro-6-fluorophenyl)-5-(1-(3-chlorophenyl)-5-(trifluoromethyl)-1H-pyrazol-4-yl)isoxazol-4-yl)-1,3,4-oxadiazole]: the pIC50 is greater than 8.00. On to `Fc1cccc(Cl)c1-c1noc(-c2cnn(-c3cccc(Cl)c3)c2C(F)(F)F)c1-c1ccco1` [IB-6, 3-(2-chloro-6-fluorophenyl)-5-(1-(3-chlorophenyl)-5-(trifluoromethyl)-1H-pyrazol-4-yl)-4-(furan-2-yl)isoxazole], for which the pIC50 was greater than 8.00. On the same count and under the same terms, as for `Fc1cccc(Cl)c1-c1noc(-c2cnn(-c3cccc(Cl)c3)c2C(F)(F)F)c1-c1ccoc1` [IB-7, 3-(2-chloro-6-fluorophenyl)-5-(1-(3-chlorophenyl)-5-(trifluoromethyl)-1H-pyrazol-4-yl)-4-(furan-3-yl)isoxazole], the figure is greater than 8.00; as for `Fc1cccc(Cl)c1-c1noc(-c2cnn(-c3cccc(Cl)c3)c2C(F)(F)F)c1-c1nncs1` [IB-8, 3-(2-chloro-6-fluorophenyl)-5-(1-(3-chlorophenyl)-5-(trifluoromethyl)-1H-pyrazol-4-yl)-4-(1,3,4-thiadiazol-2-yl)isoxazole], greater than 8.00.

`Fc1ccccc1-n1ncc(-c2onc(-c3c(F)cccc3Cl)c2-c2ccoc2)c1C(F)(F)F` [IB-9, 3-(2-chloro-6-fluorophenyl)-5-(1-(2-fluorophenyl)-5-(trifluoromethyl)-1H-pyrazol-4-yl)-4-(furan-3-yl)isoxazole]: the pIC50 is 6.00 to 7.00. Regarding `Cc1nnc(-c2c(-c3c(F)cccc3Cl)noc2-c2cnn(-c3cccnc3)c2C(F)(F)F)o1` [IB-10, 2-(3-(2-chloro-6-fluorophenyl)-5-(1-(pyridin-3-yl)-5-(trifluoromethyl)-1H-pyrazol-4-yl)isoxazol-4-yl)-5-methyl-1,3,4-oxadiazole], the pIC50 is 6.00 to 7.00.

For the compound `Fc1cccc(Cl)c1-c1noc(-c2cnn(-c3cccnc3)c2C(F)(F)F)c1-c1nnco1` [IB-15, 2-(3-(2-chloro-6-fluorophenyl)-5-(1-(pyridin-3-yl)-5-(trifluoromethyl)-1H-pyrazol-4-yl)isoxazol-4-yl)-1,3,4-oxadiazole], the pIC50 is 6.00 to 7.00. In the case of `Fc1cccc(Cl)c1-c1noc(-c2cnn(-c3ccncc3)c2C(F)(F)F)c1-c1nnco1` [IB-16, 2-(3-(2-chloro-6-fluorophenyl)-5-(1-(pyridin-4-yl)-5-(trifluoromethyl)-1H-pyrazol-4-yl)isoxazol-4-yl)-1,3,4-oxadiazole], the pIC50 was 6.00 to 7.00. In the case of `NS(=O)(=O)c1cccc(-n2ncc(-c3onc(-c4c(F)cccc4Cl)c3-c3nnco3)c2C(F)(F)F)c1` [IB-17, 3-(4-(3-(2-chloro-6-fluorophenyl)-4-(1,3,4-oxadiazol-2-yl)isoxazol-5-yl)-5-(trifluoromethyl)-1H-pyrazol-1-yl)benzenesulfonamide], the pIC50 is 5.00 to 6.00. Take `Cc1nnc(-c2c(-c3c(F)cccc3Cl)noc2-c2cnn(-c3ccccc3Cl)c2C(F)(F)F)o1` [IB-18, 2-(3-(2-chloro-6-fluorophenyl)-5-(1-(2-chlorophenyl)-5-(trifluoromethyl)-1H-pyrazol-4-yl)isoxazol-4-yl)-5-methyl-1,3,4-oxadiazole]: the pIC50 was 5.00 to 6.00. On the same count and under the same terms, as for `Cc1nnc(-c2c(-c3c(F)cccc3Cl)noc2-c2cnn(-c3ccncc3)c2C(F)(F)F)o1` [IB-19, 2-(3-(2-chloro-6-fluorophenyl)-5-(1-(pyridin-4-yl)-5-(trifluoromethyl)-1H-pyrazol-4-yl)isoxazol-4-yl)-5-methyl-1,3,4-oxadiazole], the figure is 6.00 to 7.00; as for `Cc1nnc(-c2c(-c3c(F)cccc3Cl)noc2-c2cnn(-c3ccccc3Cl)c2C(F)(F)F)s1` [IB-20, 3-(2-chloro-6-fluorophenyl)-5-(1-(2-chlorophenyl)-5-(trifluoromethyl)-1H-pyrazol-4-yl)-4-(5-methyl-1,3,4-thiadiazol-2-yl)isoxazole], 6.00 to 7.00. The same measure, in the same setting: with `Cc1nnc(-c2c(-c3c(F)cccc3Cl)noc2-c2cnn(-c3cccnc3)c2C(F)(F)F)s1` [IB-21, 3-(2-chloro-6-fluorophenyl)-4-(5-methyl-1,3,4-thiadiazol-2-yl)-5-(1-(pyridin-3-yl)-5-(trifluoromethyl)-1H-pyrazol-4-yl)isoxazole] the figure was 7.00 to 8.00; with `Cc1nnc(-c2c(-c3c(F)cccc3Cl)noc2-c2cnn(-c3ccncc3)c2C(F)(F)F)s1` [IB-22, 3-(2-chloro-6-fluorophenyl)-4-(5-methyl-1,3,4-thiadiazol-2-yl)-5-(1-(pyridin-4-yl)-S-(trifluoromethyl)-1H-pyrazol-4-yl)isoxazole], 6.00 to 7.00.

Regarding `Cc1nnc(-c2c(-c3c(F)cccc3Cl)noc2-c2cnn(-c3cccc(S(N)(=O)=O)c3)c2C(F)(F)F)s1` [IB-23, 3-(4-(3-(2-chloro-6-fluorophenyl)-4-(5-methyl-1,3,4-thiadiazol-2-yl)isoxazol-5-yl)-5-(trifluoromethyl)-1H-pyrazol-1-yl)benzenesulfonamide], the pIC50 is 5.00 to 6.00.

Take `Fc1cccc(Cl)c1-c1noc(-c2cnn(-c3ccncc3)c2C(F)(F)F)c1-c1ccoc1` [IB-24, 3-(2-chloro-6-fluorophenyl)-4-(furan-3-yl)-5-(1-(pyridin-4-yl)-5-(trifluoromethyl)-1H-pyrazol-4-yl)isoxazole]: the pIC50 was 7.00 to 8.00.

As to `Fc1cccc(Cl)c1-c1noc(-c2cnn(-c3ccccn3)c2C(F)(F)F)c1-c1nnco1` [IB-25, 2-(3-(2-chloro-6-fluorophenyl)-5-(1-(pyridin-2-yl)-5-(trifluoromethyl)-1H-pyrazol-4-yl)isoxazol-4-yl)-1,3,4-oxadiazole], the pIC50 is 7.00 to 8.00.

Consider `Cc1nnc(-c2c(-c3c(F)cccc3Cl)noc2-c2cnn(-c3ccccn3)c2C(F)(F)F)o1` [IB-26, 2-(3-(2-chloro-6-fluorophenyl)-5-(1-(pyridin-2-yl)-5-(trifluoromethyl)-1H-pyrazol-4-yl)isoxazol-4-yl)-5-methyl-1,3,4-oxadiazole], for which the pIC50 is 6.00 to 7.00. Same read-out and setting: as for `Cc1nnc(-c2c(-c3c(F)cccc3Cl)noc2-c2cnn(-c3ccccn3)c2C(F)(F)F)s1` [IB-27, 3-(2-chloro-6-fluorophenyl)-4-(5-methyl-1,3,4-thiadiazol-2-yl)-5-(1-(pyridin-2-yl)-5-(trifluoromethyl)-1H-pyrazol-4-yl)isoxazole], the figure is 7.00 to 8.00; as for `Fc1ccccc1-n1ncc(-c2onc(-c3c(F)cccc3Cl)c2-c2cnco2)c1C(F)(F)F` [IB-28, 3-(2-chloro-6-fluorophenyl)-5-(1-(2-fluorophenyl)-5-(trifluoromethyl)-1H-pyrazol-4-yl)-4-(oxazol-5-yl)isoxazole], 6.00 to 7.00. Turning to `Fc1ccccc1-n1ncc(-c2onc(-c3c(F)cccc3Cl)c2-c2nccs2)c1C(F)(F)F` [IB-30, 3-(2-chloro-6-fluorophenyl)-5-(1-(2-fluorophenyl)-5-(trifluoromethyl)-1H-pyrazol-4-yl)-4-(thiazol-2-yl)isoxazole], the pIC50 was 7.00 to 8.00. Turning to `COc1cccc(Cl)c1-c1noc(-c2cnn(-c3cccnc3)c2C(F)(F)F)c1-c1cnco1` [IB-31, 3-(2-chloro-6-methoxyphenyl)-4-(oxazol-5-yl)-5-(1-(pyridin-3-yl)-5-(trifluoromethyl)-1H-pyrazol-4-yl)isoxazole], the pIC50 was 5.00 to 6.00. As to `Fc1cccc(Cl)c1-c1noc(-c2cnn(-c3cccnc3)c2C(F)(F)F)c1-c1cnco1` [IB-32, 3-(2-chloro-6-fluorophenyl)-4-(oxazol-5-yl)-5-(1-(pyridin-3-yl)-5-(trifluoromethyl)-1H-pyrazol-4-yl)isoxazole], the pIC50 is 5.00 to 6.00. Still for that read-out and setting: with `Fc1cccc(Cl)c1-c1noc(-c2cnn(-c3ccncc3)c2C(F)(F)F)c1-c1cnco1` [IB-33, 3-(2-chloro-6-fluorophenyl)-4-(oxazol-5-yl)-5-(1-(pyridin-4-yl)-5-(trifluoromethyl)-1H-pyrazol-4-yl)isoxazole] the figure was 5.00 to 6.00; with `COc1cccc(Cl)c1-c1noc(-c2cnn(-c3ccccc3Cl)c2C(F)(F)F)c1-c1cnco1` [IB-34, 3-(2-chloro-6-methoxyphenyl)-5-(1-(2-chlorophenyl)-5-(trifluoromethyl)-1H-pyrazol-4-yl)-4-(oxazol-5-yl)isoxazole], 6.00 to 7.00.
